From patent EP4603105A1, “PHARMACEUTICAL COMPOSITION CONTAINING CYCLIC COMPOUND HAVING SELECTIVE KRAS INHIBITORY EFFECT AGAINST HRAS AND NRAS” (CHUGAI SEIYAKU KABUSHIKI KAISHA, priority 2022, dated 2024)
Where a SMILES comes first, the peptide text is derived from it. Bridges are numbered along the chain shown (N, C = ends). [ ]: non-standard residue; d: D form. The star is where a group is joined. hPhe(3,5-F2-4-CF3) = N[C@@H](CCc1cc(F)c(C(F)(F)F)c(F)c1)C(=O)O; NPrPhe(4-CF3) = CCCN[C@@H](Cc1ccc(C(F)(F)F)cc1)C(=O)O; NMeAbu(4,4,4-F3) = CN[C@@H](CC(F)(F)F)C(=O)O; NMeGly(cPent) = CN[C@H](C(=O)O)C1CCCC1; Ac4c(3,3-F2) = NC1(C(=O)O)CC(F)(F)C1; Nva(3-Et) = CCC(CC)[C@H](N)C(=O)O; NMeD = CN[C@@H](CC(=O)O)C(=O)O; Ac4c(3-oxa) = NC1(C(=O)O)COC1; NMeL = CN[C@@H](CC(C)C)C(=O)O; αMeS = C[C@](N)(CO)C(=O)O; Iva = CC[C@](C)(N)C(=O)O; Morpholide = C1CN(*)CCO1; Ac5c = NC1(C(=O)O)CCCC1; Aze = O=C(O)[C@@H]1CCN1; Sar = CNCC(=O)O; tBu = CC(C)(C)*; Allyl = C=CC*

Experiments:
[1] = target: GDP-bound NRAS wild-type protein (Homo sapiens, UniProt P01111); assay: Binding to NRAS by surface plasmon resonance (SPR), KD and KD ratio to KRAS; conditions: ratio of KD for GDP-bound NRAS wild-type protein to KD for KRAS
Summary of the method: (§1)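 SPR, 30°C: Avi-biotin RAS·GDP captured via Biotin CAPture (~100–300 RU); running buffer HBS pH 7.4, 1 mM DTT, 10 mM MgCl2, 0.01% Tween 20, 10 µM GDP, 4% DMSO. Single-cycle kinetics, 100 µL/min, 75 s injections; 1:1 model → KD.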

HRAS wild-type protein = HRAS wild-type protein (Homo sapiens, UniProt P01112); assay: Binding to HRAS by surface plasmon resonance (SPR), KD and KD ratio to KRAS; conditions: ratio of KD for HRAS wild-type protein to KD for KRAS
Summary of the method: as §1

[2] = tested on: human lung cancer strain NCI-H441; assay type: cell-based
Summary of the method: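 Proliferation was scored by […] measured after the reagent was added to cultures kept at 37°C in 5% carbon dioxide.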

HRAS wild-type protein, sequence (P01112 whole entry): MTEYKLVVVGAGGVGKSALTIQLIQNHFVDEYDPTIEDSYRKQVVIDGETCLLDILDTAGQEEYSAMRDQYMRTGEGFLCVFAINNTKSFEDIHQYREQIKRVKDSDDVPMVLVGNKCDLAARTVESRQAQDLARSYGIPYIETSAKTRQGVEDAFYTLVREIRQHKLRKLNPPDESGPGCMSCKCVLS
GDP-bound NRAS wild-type protein, sequence (P01111 whole entry): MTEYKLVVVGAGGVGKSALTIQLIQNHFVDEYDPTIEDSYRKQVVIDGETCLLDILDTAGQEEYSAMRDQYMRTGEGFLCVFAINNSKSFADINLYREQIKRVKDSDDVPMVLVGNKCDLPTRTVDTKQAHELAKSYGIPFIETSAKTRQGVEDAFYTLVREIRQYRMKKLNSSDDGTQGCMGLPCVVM

| Structure (SMILES) | IC50 [2] [nM] | NRAS /KRAS [1] | HRAS /KRAS (HRAS wild-type protein) |
| --- | --- | --- | --- |
| CCCN1C(=O)[C@@H]2CCN2C(=O)CN(C)C(=O)[C@H]([C@@H](C)CC)NC(=O)[C@H](CC(C)C)N(C)C(=O)C[C@@H](C(=O)N2CCOCC2)N(C)C(=O)[C@H](C2CCCC2)N(C)C(=O)[C@](C)(COC)NC(=O)[C@@H]2CCCN2C(=O)[C@H](CCc2cc(F)c(C(F)(F)F)c(F)c2)NC(=O)CN(C)C(=O)[C@@H]1Cc1ccc(C(F)(F)F)cc1 [PP0798] ([NMeL]I[Sar][Aze][NPrPhe(4-CF3)][Sar][hPhe(3,5-F2-4-CF3)]P[αMeS](Me)[NMeGly(cPent)][NMeD]-Morpholide; lactam N-11) | 61.5 | C (A compound having a KD ratio of 0.1 or more and less than 3 is denoted as C) | B (a compound having 3 or more and less than 10 is denoted as B) |
| C=CCOC[C@]1(C)NC(=O)[C@@H]2CCCN2C(=O)[C@H](CCc2cc(F)c(C(F)(F)F)c(F)c2)NC(=O)CN(C)C(=O)[C@H](Cc2ccc(C(F)(F)F)cc2)N(CCC)C(=O)[C@@H]2CCN2C(=O)CN(C)C(=O)[C@H]([C@@H](C)CC)NC(=O)[C@H](CC(C)C)N(C)C(=O)C[C@@H](C(=O)N2CCOCC2)N(C)C(=O)[C@H](C2CCCC2)N(C)C1=O [PP0799] ([NMeL]I[Sar][Aze][NPrPhe(4-CF3)][Sar][hPhe(3,5-F2-4-CF3)]P[αMeS](Allyl)[NMeGly(cPent)][NMeD]-Morpholide; lactam N-11) | 36.3 | C (A compound having a KD ratio of 0.1 or more and less than 3 is denoted as C) | B (a compound having 3 or more and less than 10 is denoted as B) |
| CCCN1C(=O)[C@@H]2CCN2C(=O)CN(C)C(=O)[C@H]([C@@H](C)CC)NC(=O)[C@H](CC(C)C)N(C)C(=O)C[C@@H](C(=O)N2CCOCC2)N(C)C(=O)[C@H](C2CCCC2)N(C)C(=O)[C@](C)(COC(C)(C)C)NC(=O)[C@@H]2CCCN2C(=O)[C@H](CCc2cc(F)c(C(F)(F)F)c(F)c2)NC(=O)CN(C)C(=O)[C@@H]1Cc1ccc(C(F)(F)F)cc1 [PP0800] ([NMeL]I[Sar][Aze][NPrPhe(4-CF3)][Sar][hPhe(3,5-F2-4-CF3)]P[αMeS](tBu)[NMeGly(cPent)][NMeD]-Morpholide; lactam N-11) | 186 | C (A compound having a KD ratio of 0.1 or more and less than 3 is denoted as C) | B (a compound having 3 or more and less than 10 is denoted as B) |
| CCCN1C(=O)[C@@H]2CCN2C(=O)CN(C)C(=O)[C@H]([C@@H](C)CC)NC(=O)[C@H](CC(C)C)N(C)C(=O)C[C@@H](C(=O)N2CCOCC2)N(C)C(=O)[C@H](C2CCCC2)N(C)C(=O)C2(COC2)NC(=O)[C@@H]2CCCN2C(=O)[C@H](CCc2cc(F)c(C(F)(F)F)c(F)c2)NC(=O)CN(C)C(=O)[C@@H]1Cc1ccc(C(F)(F)F)cc1 [PP0801] ([NMeL]I[Sar][Aze][NPrPhe(4-CF3)][Sar][hPhe(3,5-F2-4-CF3)]P[Ac4c(3-oxa)][NMeGly(cPent)][NMeD]-Morpholide; lactam N-11) | 28.7 | C (A compound having a KD ratio of 0.1 or more and less than 3 is denoted as C) | B (a compound having 3 or more and less than 10 is denoted as B) |
| CCCN1C(=O)[C@@H]2CCN2C(=O)CN(C)C(=O)[C@H]([C@@H](C)CC)NC(=O)[C@H](CC(C)C)N(C)C(=O)C[C@@H](C(=O)N2CCOCC2)N(C)C(=O)[C@H](CC(F)(F)F)N(C)C(=O)C2(CCCC2)NC(=O)[C@@H]2CCCN2C(=O)[C@H](CCc2cc(F)c(C(F)(F)F)c(F)c2)NC(=O)CN(C)C(=O)[C@@H]1Cc1ccc(C(F)(F)F)cc1 [PP0803] ([NMeL]I[Sar][Aze][NPrPhe(4-CF3)][Sar][hPhe(3,5-F2-4-CF3)]P[Ac5c][NMeAbu(4,4,4-F3)][NMeD]-Morpholide; lactam N-11) | 52.5 | C (A compound having a KD ratio of 0.1 or more and less than 3 is denoted as C) | B (a compound having 3 or more and less than 10 is denoted as B) |
| CCCN1C(=O)[C@@H]2CCN2C(=O)CN(C)C(=O)[C@H](C(CC)CC)NC(=O)[C@H](CC(C)C)N(C)C(=O)C[C@@H](C(=O)N2CCOCC2)N(C)C(=O)[C@H](C2CCCC2)N(C)C(=O)C2(CCCC2)NC(=O)[C@@H]2CCCN2C(=O)[C@H](CCc2cc(F)c(C(F)(F)F)c(F)c2)NC(=O)CN(C)C(=O)[C@@H]1Cc1ccc(C(F)(F)F)cc1 [PP0804] ([NMeL][Nva(3-Et)][Sar][Aze][NPrPhe(4-CF3)][Sar][hPhe(3,5-F2-4-CF3)]P[Ac5c][NMeGly(cPent)][NMeD]-Morpholide; lactam N-11) | 40.9 | C (A compound having a KD ratio of 0.1 or more and less than 3 is denoted as C) | B (a compound having 3 or more and less than 10 is denoted as B) |
| CC[C@H](C)[C@@H]1NC(=O)[C@H](CC(C)C)N(C)C(=O)C[C@@H](C(=O)N2CCOCC2)N(C)C(=O)[C@H](C2CCCC2)N(C)C(=O)C2(CCC2)NC(=O)[C@]2(C)CCCN2C(=O)[C@H](CCc2cc(F)c(C(F)(F)F)c(F)c2)NC(=O)CN(C)C(=O)[C@H](Cc2ccc(C(F)(F)F)cc2)N2CCCC[C@@H](C2=O)N(C)C(=O)CN(C)C1=O [PP0808] | 16.7 | B (a compound having 3 or more and less than 10 is denoted as B) | B (a compound having 3 or more and less than 10 is denoted as B) |

Further compounds by falling IC50 [2], results first:

| IC50 [2] [nM] | Structure (SMILES) | NRAS /KRAS [1] | HRAS /KRAS (HRAS wild-type protein) |
| --- | --- | --- | --- |
| 16.7 | CCO[C@@H]1C[C@H]2C(=O)NC3(CCC3)C(=O)N(C)[C@@H](C3CCCC3)C(=O)N(C)[C@H](C(=O)N3CCOCC3)CC(=O)N(C)[C@@H](CC(C)C)C(=O)N[C@@H](C3CC(F)(F)C3)C(=O)N(C)CC(=O)N(C)[C@H]3CCCCN(C3=O)[C@@H](Cc3ccc(C(F)(F)F)cc3)C(=O)N(C)CC(=O)N[C@@H](CCc3cc(F)c(C(F)(F)F)c(F)c3)C(=O)N2C1 [PP0807] | B (a compound having 3 or more and less than 10 is denoted as B) | B (a compound having 3 or more and less than 10 is denoted as B) |
| 10.3 | CCCN1C(=O)CN(C)C(=O)CN(C)C(=O)[C@H]([C@@H](C)CC)NC(=O)[C@H](CC(C)C)N(C)C(=O)C[C@@H](C(=O)N(C)C)N(C)C(=O)[C@H](C2CCCC2)N(C)C(=O)[C@](C)(CC)NC(=O)[C@@H]2CCCN2C(=O)[C@H](CCc2cc(F)c(C(F)(F)F)c(F)c2)NC(=O)CN(C)C(=O)[C@@H]1Cc1ccc(C(F)(F)F)cc1 [PP0805] ([NMeL]I[Sar][Sar][NPrPhe(4-CF3)][Sar][hPhe(3,5-F2-4-CF3)]P[Iva][NMeGly(cPent)][NMeD]-NMe2; lactam N-11) | B (a compound having 3 or more and less than 10 is denoted as B) | C (A compound having a KD ratio of 0.1 or more and less than 3 is denoted as C) |
| 6.5 | CCCN1C(=O)[C@@H]2CCN2C(=O)CN(C)C(=O)[C@H]([C@@H](C)CC)NC(=O)[C@H](CC(C)C)N(C)C(=O)C[C@@H](C(=O)N2CCOCC2)N(C)C(=O)[C@H](C2CCCC2)N(C)C(=O)C2(CC(F)(F)C2)NC(=O)[C@@H]2CCCN2C(=O)[C@H](CCc2cc(F)c(C(F)(F)F)c(F)c2)NC(=O)CN(C)C(=O)[C@@H]1Cc1ccc(C(F)(F)F)cc1 [PP0802] ([NMeL]I[Sar][Aze][NPrPhe(4-CF3)][Sar][hPhe(3,5-F2-4-CF3)]P[Ac4c(3,3-F2)][NMeGly(cPent)][NMeD]-Morpholide; lactam N-11) | C (A compound having a KD ratio of 0.1 or more and less than 3 is denoted as C) | B (a compound having 3 or more and less than 10 is denoted as B) |
